From ChEMBL document CHEMBL5303573, “Mapping human microbiome drug metabolism by gut bacteria and their genes” (Nature, 2019)

How the values were obtained:
[1] = The drug is tested on Bacteroides fragilis strain: ATCC43859 for biotransformation. The drug concentrations were measured before and after a 12-h incubation by liquid-chromatography-coupled mass spectrometry (LC–MS); details: 2 µM
[2] = The drug is tested on Bacteroides cellulosilyticus strain: DSM14838 for biotransformation. The drug concentrations were measured before and after a 12-h incubation by liquid-chromatography-coupled mass spectrometry (LC–MS); details: 2 µM
[3] = The drug is tested on Bacteroides sp. WH2 strain: WH2 for biotransformation. The drug concentrations were measured before and after a 12-h incubation by liquid-chromatography-coupled mass spectrometry (LC–MS); details: bacteroides sp. wh2, 12 h, 2 µM
[4] = The drug is tested on Clostridium asparagiforme strain: DSM15981 for biotransformation. The drug concentrations were measured before and after a 12-h incubation by liquid-chromatography-coupled mass spectrometry (LC–MS); type: ADME; parameters: dose 2 uM, timepoint 0 vs 12 hours; details: enterocloster asparagiformis, 2 µM
[5] = The drug is tested on Ruminococcus lactaris strain: ATCC29176 for biotransformation. The drug concentrations were measured before and after a 12-h incubation by liquid-chromatography-coupled mass spectrometry (LC–MS); details: 2 µM
[6] = The drug is tested on Bifidobacterium breve strain: DSM20213 for biotransformation. The drug concentrations were measured before and after a 12-h incubation by liquid-chromatography-coupled mass spectrometry (LC–MS); details: 2 µM
[7] = The drug is tested on Odoribacter splanchnicus strain: fecal isolate for biotransformation. The drug concentrations were measured before and after a 12-h incubation by liquid-chromatography-coupled mass spectrometry (LC–MS); details: 2 µM
[8] = The drug is tested on Eggerthella lenta strain: ATCC25559 for biotransformation. The drug concentrations were measured before and after a 12-h incubation by liquid-chromatography-coupled mass spectrometry (LC–MS); details: 2 µM
[9] = The drug is tested on Anaerotruncus colihominis strain: DSM17241 for biotransformation. The drug concentrations were measured before and after a 12-h incubation by liquid-chromatography-coupled mass spectrometry (LC–MS); details: 2 µM
[10] = The drug is tested on Eubacterium hallii strain: DSM3353 for biotransformation. The drug concentrations were measured before and after a 12-h incubation by liquid-chromatography-coupled mass spectrometry (LC–MS); details: anaerobutyricum hallii, 2 µM
[11] = The drug is tested on Clostridium scindens strain: ATCC35704 for biotransformation. The drug concentrations were measured before and after a 12-h incubation by liquid-chromatography-coupled mass spectrometry (LC–MS); details: 2 µM
[12] = The drug is tested on Eubacterium rectale strain: ATCC33656 for biotransformation. The drug concentrations were measured before and after a 12-h incubation by liquid-chromatography-coupled mass spectrometry (LC–MS); details: agathobacter rectalis, 2 µM
[13] = The drug is tested on Bacteroides fragilis strain: HMW615 for biotransformation. The drug concentrations were measured before and after a 12-h incubation by liquid-chromatography-coupled mass spectrometry (LC–MS); details: 2 µM
[14] = bacteroides eggerthii, 12 h, 2 µM
Description: The drug is tested on Bacteroides eggerthii strain: DSM20697 for biotransformation. The drug concentrations were measured before and after a 12-h incubation by liquid-chromatography-coupled mass spectrometry (LC–MS)

[15] = bacteroides stercoris, 12 h, 2 µM
Description: The drug is tested on Bacteroides stercoris strain: ATCC43183 for biotransformation. The drug concentrations were measured before and after a 12-h incubation by liquid-chromatography-coupled mass spectrometry (LC–MS)

[16] = bifidobacterium adolescentis, 12 h, 2 µM
Description: The drug is tested on Bifidobacterium adolescentis strain: ATCC 15703 for biotransformation. The drug concentrations were measured before and after a 12-h incubation by liquid-chromatography-coupled mass spectrometry (LC–MS)

[17] = The drug is tested on Eubacterium ventriosum strain: ATCC27560 for biotransformation. The drug concentrations were measured before and after a 12-h incubation by liquid-chromatography-coupled mass spectrometry (LC–MS); type: ADME; parameters: dose 2 uM, timepoint 0 vs 12 hours; details: 2 µM
[18] = The drug is tested on Bacteroides xylanisolvens strain: DSM18836 for biotransformation. The drug concentrations were measured before and after a 12-h incubation by liquid-chromatography-coupled mass spectrometry (LC–MS); details: 2 µM
[19] = enterocloster bolteae, 12 h, 2 µM
Description: The drug is tested on Clostridium bolteae strain: ATCCBAA-613 for biotransformation. The drug concentrations were measured before and after a 12-h incubation by liquid-chromatography-coupled mass spectrometry (LC–MS)

[20] = limosilactobacillus reuteri cf48-3a, 12 h, 2 µM
Description: The drug is tested on Lactobacillus reuteri CF48-3A strain: BEI HM-102 for biotransformation. The drug concentrations were measured before and after a 12-h incubation by liquid-chromatography-coupled mass spectrometry (LC–MS)

CC(=O)Nc1ccc(OC(C)=O)cc1 [DIACETAMATE]
Bacterial Biotransformation [1]: Compound metabolized
Bacterial Biotransformation [2]: Compound metabolized
Bacterial Biotransformation [3]: Compound metabolized
Bacterial Biotransformation [4]: Compound metabolized
Bacterial Biotransformation [5]: Compound metabolized
Bacterial Biotransformation [6]: Compound metabolized
Bacterial Biotransformation [7]: Compound metabolized
Bacterial Biotransformation [8]: Compound metabolized
Bacterial Biotransformation [9]: Compound metabolized
Bacterial Biotransformation [10]: Compound metabolized
Bacterial Biotransformation [11]: Compound metabolized
Bacterial Biotransformation [12]: Compound metabolized
Bacterial Biotransformation [13]: Compound metabolized
Bacterial Biotransformation [14]: Compound metabolized
Bacterial Biotransformation [15]: Compound metabolized
Bacterial Biotransformation [16]: Compound metabolized
Bacterial Biotransformation [17]: Compound metabolized
Bacterial Biotransformation [18]: Compound metabolized
Bacterial Biotransformation [19]: Compound metabolized
Bacterial Biotransformation [20]: Compound metabolized

CC(=O)OCC(=O)[C@@]12N=C(C)O[C@@H]1C[C@H]1[C@@H]3CCC4=CC(=O)C=C[C@]4(C)[C@H]3[C@@H](O)C[C@@]12C [DEFLAZACORT]
Bacterial Biotransformation [1]: Compound metabolized
Bacterial Biotransformation [2]: Compound metabolized
Bacterial Biotransformation [3]: Compound metabolized
Bacterial Biotransformation [4]: Compound metabolized
Bacterial Biotransformation [5]: Compound metabolized
Bacterial Biotransformation [6]: Compound metabolized
Bacterial Biotransformation [7]: Compound metabolized
Bacterial Biotransformation [8]: Compound metabolized
Bacterial Biotransformation [9]: Compound metabolized
Bacterial Biotransformation [10]: Compound metabolized
Bacterial Biotransformation [11]: Compound metabolized
Bacterial Biotransformation [12]: Compound metabolized
Bacterial Biotransformation [13]: Compound metabolized
Bacterial Biotransformation [14]: Compound metabolized
Bacterial Biotransformation [15]: Compound metabolized
Bacterial Biotransformation [16]: Compound metabolized
Bacterial Biotransformation [17]: Compound metabolized
Bacterial Biotransformation [18]: Compound metabolized
Bacterial Biotransformation [19]: Compound metabolized
Bacterial Biotransformation [20]: Compound metabolized

COc1ccccc1OCCNCC(O)COc1cccc2[nH]c3ccccc3c12 (stereo not given) [CARVEDILOL]
Bacterial Biotransformation [1]: Compound NOT metabolized
Bacterial Biotransformation [2]: Compound metabolized
Bacterial Biotransformation [3]: Compound metabolized
Bacterial Biotransformation [4]: Compound metabolized
Bacterial Biotransformation [5]: Compound metabolized
Bacterial Biotransformation [6]: Compound NOT metabolized
Bacterial Biotransformation [7]: Compound NOT metabolized
Bacterial Biotransformation [8]: Compound NOT metabolized
Bacterial Biotransformation [9]: Compound metabolized
Bacterial Biotransformation [10]: Compound metabolized
Bacterial Biotransformation [11]: Compound NOT metabolized
Bacterial Biotransformation [12]: Compound NOT metabolized
Bacterial Biotransformation [13]: Compound metabolized
Bacterial Biotransformation [14]: Compound NOT metabolized
Bacterial Biotransformation [15]: Compound metabolized
Bacterial Biotransformation [16]: Compound NOT metabolized
Bacterial Biotransformation [17]: Compound metabolized
Bacterial Biotransformation [18]: Compound metabolized
Bacterial Biotransformation [19]: Compound NOT metabolized
Bacterial Biotransformation [20]: Compound NOT metabolized

CC[C@H](C)C(=O)O[C@H]1C[C@@H](C)C=C2C=C[C@H](C)[C@H](CC[C@@H]3C[C@@H](O)CC(=O)O3)[C@H]21 [LOVASTATIN]
Bacterial Biotransformation [1]: Compound NOT metabolized
Bacterial Biotransformation [2]: Compound metabolized
Bacterial Biotransformation [3]: Compound NOT metabolized
Bacterial Biotransformation [4]: Compound metabolized
Bacterial Biotransformation [5]: Compound NOT metabolized
Bacterial Biotransformation [6]: Compound metabolized
Bacterial Biotransformation [7]: Compound metabolized
Bacterial Biotransformation [8]: Compound NOT metabolized
Bacterial Biotransformation [9]: Compound metabolized
Bacterial Biotransformation [10]: Compound metabolized
Bacterial Biotransformation [11]: Compound metabolized
Bacterial Biotransformation [12]: Compound NOT metabolized
Bacterial Biotransformation [13]: Compound metabolized
Bacterial Biotransformation [14]: Compound NOT metabolized
Bacterial Biotransformation [15]: Compound NOT metabolized
Bacterial Biotransformation [16]: Compound metabolized
Bacterial Biotransformation [17]: Compound NOT metabolized
Bacterial Biotransformation [18]: Compound NOT metabolized
Bacterial Biotransformation [19]: Compound NOT metabolized
Bacterial Biotransformation [20]: Compound NOT metabolized

CCOC(=O)C1=C(C)NC(C)=C(C(=O)OC)C1c1cccc([N+](=O)[O-])c1 (stereo not given) [NITRENDIPINE]
Bacterial Biotransformation [1]: Compound metabolized
Bacterial Biotransformation [2]: Compound metabolized
Bacterial Biotransformation [3]: Compound metabolized
Bacterial Biotransformation [4]: Compound metabolized
Bacterial Biotransformation [5]: Compound metabolized
Bacterial Biotransformation [6]: Compound metabolized
Bacterial Biotransformation [7]: Compound metabolized
Bacterial Biotransformation [8]: Compound metabolized
Bacterial Biotransformation [9]: Compound metabolized
Bacterial Biotransformation [10]: Compound metabolized
Bacterial Biotransformation [11]: Compound metabolized
Bacterial Biotransformation [12]: Compound metabolized
Bacterial Biotransformation [13]: Compound metabolized
Bacterial Biotransformation [14]: Compound metabolized
Bacterial Biotransformation [15]: Compound metabolized
Bacterial Biotransformation [16]: Compound metabolized
Bacterial Biotransformation [17]: Compound metabolized
Bacterial Biotransformation [18]: Compound metabolized
Bacterial Biotransformation [19]: Compound metabolized
Bacterial Biotransformation [20]: Compound metabolized

COc1c(C)c2c(c(O)c1C/C=C(\C)CCC(=O)OCCN1CCOCC1)C(=O)OC2 [MYCOPHENOLATE MOFETIL]
Bacterial Biotransformation [1]: Compound metabolized
Bacterial Biotransformation [2]: Compound metabolized
Bacterial Biotransformation [3]: Compound metabolized
Bacterial Biotransformation [4]: Compound metabolized
Bacterial Biotransformation [5]: Compound metabolized
Bacterial Biotransformation [6]: Compound metabolized
Bacterial Biotransformation [7]: Compound metabolized
Bacterial Biotransformation [8]: Compound metabolized
Bacterial Biotransformation [9]: Compound metabolized
Bacterial Biotransformation [10]: Compound metabolized
Bacterial Biotransformation [11]: Compound metabolized
Bacterial Biotransformation [12]: Compound metabolized
Bacterial Biotransformation [13]: Compound metabolized
Bacterial Biotransformation [14]: Compound metabolized
Bacterial Biotransformation [15]: Compound metabolized
Bacterial Biotransformation [16]: Compound metabolized
Bacterial Biotransformation [17]: Compound metabolized
Bacterial Biotransformation [18]: Compound metabolized
Bacterial Biotransformation [19]: Compound metabolized
Bacterial Biotransformation [20]: Compound metabolized
